Experimental findings from patent US10759767B2 (priority 2012, dated 2020) are described below.

In one data set the test system is Alternaria solani. The data set can be described thus: Microtest: activity against early blight caused by Alternaria solani (Alteso). It counts as cell-based. The conditions noted are these: for inhibition of growth at 0.001 ppm: solo 0.001 ppm; for inhibition of growth at 4e-06 ppm: solo 0.000004 ppm; for inhibition of growth at 6.3e-05 ppm: solo 0.000063 ppm.
The next data set has as its system Phytophthora infestans. The data set can be described thus: microbe, parasite or virus in culture. It counts as cell-based.
Another data set deals with Pyricularia oryzae. The data set can be described thus: microbe, parasite or virus in culture. It counts as cell-based. The conditions noted are these: for inhibition of growth at 0.001 ppm / inhibition of growth at 0.016 ppm / inhibition of growth at 0.004 ppm / inhibition of growth at 1 ppm: Pyricularia oryzae, 168 h, read-out: Observed efficacy; for Observed efficacy: solo product.

Another data set relates to Septoria tritici. The data set can be described thus: Microtest: activity against leaf blotch on wheat caused by Septoria tritici (Septtr). It counts as cell-based. The conditions noted are these: solo product; for inhibition of growth at 4e-06 ppm: 0.000004 ppm; for inhibition of growth at 6.3e-05 ppm: 0.000063 ppm; for inhibition of growth at 2.5e-07 ppm: 0.00000025 ppm; for inhibition of growth at 1e-06 ppm: 0.000001 ppm.

Another data set relates to Leptosphaeria nodorum. The data set can be described thus: Microtest: activity against wheat leaf spots caused by Leptosphaeria nodorum (Leptno). It counts as cell-based. Conditions: Parastagonospora nodorum, 168 h, read-out: Observed efficacy; for inhibition of growth at 6.3e-05 ppm: 0.000063 ppm.
The subject of a further data set is Botrytis cinerea. The data set can be described thus: Microtest: activity against the grey mold Botrytis cinerea (Botrci). It counts as cell-based. Conditions: Botrytis cinerea, 168 h, read-out: Observed efficacy; for inhibition of growth at 4e-06 ppm: solo 0.000004 ppm; for inhibition of growth at 1.6e-05 ppm: solo 0.000016 ppm; for inhibition of growth at 6.3e-05 ppm: solo 0.000063 ppm.

Where [1] appears, read: Alternaria solani, 168 h, solo 0.00025 ppm, read-out: Observed efficacy.
[2] abbreviates: Alternaria solani, 168 h, read-out: Observed efficacy.
The mark [3] stands for this setting: Phytophthora infestans, 168 h, read-out: Observed efficacy.
Where [4] appears, read: Zymoseptoria tritici, 168 h, second Septtr microtest, read-out: Observed efficacy.
[5] abbreviates: Zymoseptoria tritici, 168 h, second Septtr microtest, 0.000016 ppm, read-out: Observed efficacy.

Each structure is given as a SMILES string. Read-outs that look alike come from different tables or passages of the source.

Take `CC#CC(O)(Cn1cncn1)c1ccc(Oc2ccc(Cl)cc2)cc1Cl` (stereo not shown) [I-1, 2-[2-chloro-4-(4-chlorophenoxyl)phenyl]-1-(1,2,4-triazol-1-yl)pent-3-yn-2-ol]: the melting point – broadly, the temperature of the solid-liquid transition – was found to be 137 °C. Further, in the data set on Alternaria solani (setting [1]), the inhibition of growth at […] amounted to 4%. Also, the inhibition of growth at 0.001 ppm in the data set with Alternaria solani (setting [2]) stood at 10%. Further, in the data set on Phytophthora infestans (setting [3]), the inhibition of growth at 16 ppm worked out at 0%. Further, in the data set on Pyricularia oryzae, the inhibition of growth at 0.001 ppm is 3% and the inhibition of growth at 0.016 ppm amounted to 0%. The same compound yielded an Observed efficacy in the data set with Pyricularia oryzae (0.016 ppm) of 0%. The inhibition of growth at 4e-06 ppm in the data set with Septoria tritici (setting [4]) turned out to be 11%. In the data set with Septoria tritici (Zymoseptoria tritici, 168 h, second Septtr microtest, 0.00063 ppm, read-out: Observed efficacy), the inhibition of growth at […] was 17%. Also, the inhibition of growth at 6.3e-05 ppm in the data set on Septoria tritici (Zymoseptoria tritici, 168 h, read-out: Observed efficacy) is 17%. Also, the inhibition of growth at […] in the data set on Leptosphaeria nodorum (solo 0.063 ppm) was found to be 19%. For the same compound, the inhibition of growth at 6.3e-05 ppm with Leptosphaeria nodorum (solo product) was determined as 12%. For the same compound, in the data set with Botrytis cinerea (solo 0.000001 ppm), the inhibition of growth at 1e-06 ppm worked out at 4%. Further, in the data set on Botrytis cinerea, the inhibition of growth at 4e-06 ppm was 0%, the inhibition of growth at 1.6e-05 ppm was 1% and the inhibition of growth at 6.3e-05 ppm stood at 0%. The inhibition of growth at […] in the data set on Botrytis cinerea (solo 0.063 ppm) was 16%.

In the case of `O=c1c2cc(F)ccc2nc(-n2cncn2)n1-c1ccc(Cl)cc1Cl` [Fluquinconazol], the Observed efficacy with Phytophthora infestans (solo product, 4 ppm) stood at 0%; with Pyricularia oryzae (1 ppm), 1%; in the data set on Septoria tritici (0.004 ppm), 0%.

Consider `OC(Cn1cncn1)(c1ccc(Oc2ccc(Cl)cc2)cc1Cl)C1CC1` (stereo not shown), for which the melting point was 110 °C.

Turning to `CC(O)(Cn1cncn1)c1ccc(Oc2ccc(Cl)cc2)cc1C(F)(F)F` (stereo not shown) [I-3, 2-[4-(4-chlorophenoxy)-2-(trifluoromethyl)phenyl]-1-(1,2,4-triazol-1-yl)propan-2-ol], in the data set on Alternaria solani (setting [2]), the inhibition of growth at 4e-06 ppm came to 5% and the inhibition of growth at 6.3e-05 ppm is 8%. Moreover, the Observed efficacy in the data set with Alternaria solani (solo product, 0.000016 ppm) came to 0%. In the data set on Phytophthora infestans (setting [3]), the inhibition of growth at 4 ppm was 4% and the inhibition of growth at 16 ppm turned out to be 4%. In the data set on Pyricularia oryzae, the inhibition of growth at 0.004 ppm worked out at 0% and the inhibition of growth at 1 ppm was 37%. For the same compound, in the data set with Septoria tritici (setting [4]), the inhibition of growth at 2.5e-07 ppm was 8%, the inhibition of growth at 1e-06 ppm came out at 5% and the inhibition of growth at 4e-06 ppm was 14%. Moreover, in the data set with Septoria tritici (setting [5]), the inhibition of growth at 1.6e-05 ppm worked out at 16%. For the same compound, the Observed efficacy in the data set on Septoria tritici (0.000016 ppm) is on record as 16. Moreover, the Observed efficacy in the data set on Septoria tritici (0.004 ppm) came to 54. In addition, the inhibition of growth at 6.3e-05 ppm in the data set with Leptosphaeria nodorum (solo product) came to 26%. Moreover, in the data set on Botrytis cinerea, the inhibition of growth at 4e-06 ppm came out at 0%, the inhibition of growth at 1.6e-05 ppm worked out at 5% and the inhibition of growth at 6.3e-05 ppm stood at 0%. Also, in the data set on Botrytis cinerea (solo 0.063 ppm), the inhibition of growth at […] worked out at 23%.

The compound `CC#CC(O)(Cn1cncn1)c1ccc(Oc2ccc(Cl)cc2)cc1C(F)(F)F` (stereo not shown) gave a melting point of 137 °C.

The compound `CC(C)C(O)(Cn1cncn1)c1ccc(Oc2ccc(Cl)cc2)cc1C(F)(F)F` (stereo not shown) [I-5, 2-[4-(4-chlorophenoxy)-2-(trifluoromethyl)phenyl]-3-methyl-1-(1,2,4-triazol-1-yl)butan-2-ol] displayed a melting point of 114 °C. For the same compound, the inhibition of growth at 4e-06 ppm in the data set with Alternaria solani (setting [2]) was found to be 8%. Also, the inhibition of growth at 0.004 ppm with Alternaria solani (Alternaria solani, 168 h, solo 0.004 ppm, read-out: Observed efficacy) was determined as 11%. Also, the inhibition of growth at 0.016 ppm with Alternaria solani (Alternaria solani, 168 h, solo 0.016 ppm, read-out: Observed efficacy) stood at 10%. Besides, the inhibition of growth at […] in the data set with Alternaria solani (Alternaria solani, 168 h, solo 0.063 ppm, read-out: Observed efficacy) was found to be 14%. Further, in the data set with Alternaria solani (Alternaria solani, 168 h, solo 1 ppm, read-out: Observed efficacy), the inhibition of growth at 1 ppm was 49%. In addition, in the data set on Phytophthora infestans (setting [3]), the inhibition of growth at 16 ppm came out at 2% and the inhibition of growth at 63 ppm was 45%. Moreover, in the data set on Pyricularia oryzae, the inhibition of growth at 0.001 ppm came out at 5%, the inhibition of growth at 0.004 ppm is 0%, the inhibition of growth at 0.016 ppm amounted to 0% and the inhibition of growth at 1 ppm worked out at 67%. Also, in the data set on Septoria tritici (setting [4]), the inhibition of growth at 2.5e-07 ppm turned out to be 5% and the inhibition of growth at 1e-06 ppm worked out at 10%. The inhibition of growth at 1.6e-05 ppm in the data set with Septoria tritici (Zymoseptoria tritici, 168 h, 0.000016 ppm, read-out: Observed efficacy) is 13%. This compound yielded an Observed efficacy with Septoria tritici (second Septtr microtest, 0.000016 ppm) of 13%. In addition, the inhibition of growth at […] in the data set with Leptosphaeria nodorum (solo 0.25 ppm) came to 19%. Besides, in the data set on Leptosphaeria nodorum (solo product, 0.001 ppm), the inhibition of growth at 0.001 ppm came out at 9%. Moreover, in the data set with Leptosphaeria nodorum (solo product, 0.063 ppm), the inhibition of growth at […] was 20%. The inhibition of growth at […] in the data set on Botrytis cinerea (solo 0.063 ppm) is 14%. In addition, the inhibition of growth at […] in the data set on Botrytis cinerea (solo 0.25 ppm) stood at 27%.

As to `OC(Cn1cncn1)(c1ccc(Oc2ccc(Cl)cc2)cc1C(F)(F)F)C1CC1` (stereo not shown) [I-4, 1-[4-(4-chlorophenoxy)-2-(trifluoromethyl)phenyl]-1-cyclopropyl-2-(1,2,4-triazol-1-yl)ethanol], the inhibition of growth at 6.3e-05 ppm stood at 5% with Alternaria solani (setting [2]), 8% in the data set on Septoria tritici (setting [4]) and 4% in the data set with Botrytis cinerea. Besides, the inhibition of growth at […] with Alternaria solani (setting [1]) worked out at 7%; in the data set on Alternaria solani (Alternaria solani, 168 h, solo 0.25 ppm, read-out: Observed efficacy), 33%; with Botrytis cinerea (solo 0.00025 ppm), 2%; in the data set on Botrytis cinerea (solo 0.063 ppm) it was 4%; with Botrytis cinerea (solo 0.25 ppm), 17%. Besides, the inhibition of growth at 0.001 ppm in the data set on Alternaria solani (setting [2]) turned out to be 10%; in the data set with Septoria tritici (Zymoseptoria tritici, 168 h, 0.001 ppm, read-out: Observed efficacy) it was 0%; with Leptosphaeria nodorum (solo 0.001 ppm), 15%; in the data set on Botrytis cinerea (solo 0.001 ppm), 5%. In addition, in the data set on Phytophthora infestans (setting [3]), the inhibition of growth at 4 ppm worked out at 3%. Further, in the data set with Phytophthora infestans (setting [3]), the inhibition of growth at 16 ppm is 9%. Besides, the inhibition of growth at 1 ppm in the data set with Pyricularia oryzae came out at 47%. For the same compound, the inhibition of growth at 1.6e-05 ppm in the data set on Septoria tritici (setting [5]) came out at 3%. The Observed efficacy with Septoria tritici (second Septtr microtest, 0.001 ppm) is reported as 0%; with Septoria tritici (0.016 ppm), 18.
